In ChEMBL document CHEMBL1136447, “Biological investigation and structure-activity relationship studies on azadirone from Azadirachta indica A. Juss” (2003):

Experiments:
[1] = tested on: MCF7; assay: In vitro cytotoxic activity against breast (MCF-7/ADR) cell line at a concentration of 10e-5 M; format: functional, Homo sapiens
[2] = tested on: DU-145; assay: In vitro cytotoxic activity against prostate (DU145) cell line at a concentration of 10e-5 M; format: functional, Homo sapiens
[3] = tested on: A498; assay: In vitro cytotoxic activity against renal (A498) cell line at a concentration of 10e-5 M; format: functional, Homo sapiens
[4] = tested on: SW-620; assay: In vitro cytotoxic activity against colon (SW620) cell line at a concentration of 10e-5 M; format: functional, Homo sapiens
[5] = tested on: SK-OV-3; assay: In vitro cytotoxic activity against Ovarian (SK-OV3) cell line at a concentration of 10e-5 M; format: functional, Homo sapiens
[6] = tested on: M14; assay: In vitro cytotoxic activity against Melanoma (M14) cell line at a concentration of 10e-5 M; format: functional, Homo sapiens
[7] = tested on: U-251; assay: In vitro cytotoxic activity against CNS(U251) cell line at a concentration of 10e-5 M; format: functional, Homo sapiens
[8] = tested on: NCI-H522; assay: In vitro cytotoxicity against H522 (human adenocarcinoma) cell line at a concentration of 10e-5 M.
[9] = tested on: NCI-H522; assay: In vitro cytotoxic activity against lung (H522) cell line at a concentration of 10e-5 M
[10] = tested on: NCI-H522; assay: In vitro cytotoxic activity against lung (H522) cell line; conditions: Homo sapiens
[11] = tested on: M14; assay: In vitro cytotoxic activity against Melanoma (M14) cell line; format: functional; conditions: Homo sapiens
[12] = tested on: MCF7; assay: In vitro cytotoxic activity against breast (MCF-7/ADR) cell line; format: functional; conditions: Homo sapiens
[13] = tested on: DU-145; assay: In vitro cytotoxic activity against prostate (DU145) cell line; format: functional; conditions: Homo sapiens
[14] = tested on: SK-OV-3; assay: In vitro cytotoxic activity against Ovarian (SK-OV3) cell line; format: functional; conditions: Homo sapiens
[15] = tested on: A498; assay: In vitro cytotoxic activity against renal (A498) cell line; format: functional; conditions: Homo sapiens
[16] = tested on: SW-620; assay: In vitro cytotoxic activity against colon (SW620) cell line; format: functional; conditions: Homo sapiens
[17] = tested on: U-251; assay: In vitro cytotoxic activity against CNS(U251) cell line; format: functional; conditions: Homo sapiens

CC(=O)OC1C=C[C@@]2(C)C(C[C@@H](OC(C)=O)[C@@]3(C)C4=CC[C@@H](c5ccoc5)[C@]4(C)CCC23)C1(C)C (stereo partly drawn)
Growth [1]: 78%
Growth [2]: 74%
Growth [3]: 69%
Growth [4]: 59%
Growth [5]: 19.3%
Growth [6]: 76%
Growth [7]: 46%
Growth [8]: 86%

CC1(C)C(=O)C=C[C@@]2(C)C1C[C@@H](OC(=O)C(F)(F)F)[C@@]1(C)C3=CC[C@@H](c4ccoc4)[C@]3(C)CCC21 (stereo partly drawn)
Growth [1]: 54%
Growth [2]: 77%
Growth [3]: 59%
Growth [4]: 60%
Growth [5]: 49%
Growth [6]: 86%
Growth [7]: 52%
Growth [8]: 75%

CC(C)C(=O)O[C@@H]1CC2C(C)(C)C(=O)C=C[C@]2(C)C2CC[C@]3(C)C(=CC[C@H]3c3ccoc3)[C@@]21C (stereo partly drawn)
Growth [1]: 57%
Growth [2]: 69%
Growth [3]: 74%
Growth [4]: 61%
Growth [5]: 84%
Growth [6]: 95%
Growth [7]: 40%
Growth [8]: 54%

CC1(C)C(=O)C=C[C@@]2(C)C1C[C@@H](OC(=O)CCl)[C@@]1(C)C3=CC[C@@H](c4ccoc4)[C@]3(C)CCC21 (stereo partly drawn)
Growth [9]: 5%
GI50 [10]: 4 µM
Growth [1]: -2%
Growth [2]: 13%
Growth [3]: -8%
GI50 [11]: 5 µM
GI50 [12]: 3 µM
GI50 [13]: 5 µM
GI50 [14]: 5 µM
Growth [4]: 12%
GI50 [15]: 4 µM
Growth [5]: 14%
Growth [6]: -3%
Growth [7]: 22%
GI50 [16]: 5 µM
GI50 [17]: 6 µM

COc1ccc(/C=C\C(=O)O[C@@H]2CC3C(C)(C)C(=O)C=C[C@]3(C)C3CC[C@]4(C)C(=CC[C@H]4c4ccoc4)[C@@]32C)cc1OC (stereo partly drawn)
Growth [1]: 66%
Growth [2]: 25%
Growth [3]: 5%
Growth [4]: 62%
Growth [5]: 85%
Growth [6]: 39%
Growth [7]: 77%
Growth [8]: 63%

CC1(C)C(O)C=C[C@@]2(C)C1C[C@@H](O)[C@@]1(C)C3=CC[C@@H](c4ccoc4)[C@]3(C)CCC21 (stereo partly drawn)
Growth [1]: 76%
Growth [2]: 100%
Growth [3]: 88.2%
Growth [4]: 79.6%
Growth [5]: 100%
Growth [6]: 100%
Growth [7]: 100%
Growth [8]: 97%

CC(=O)O[C@@H]1CC2C(C)(C)C(=O)[C@@H]3O[C@@H]3[C@]2(C)C2CC[C@]3(C)C(=CC[C@H]3c3ccoc3)[C@@]21C (stereo partly drawn)
Growth [1]: 59.3%
Growth [2]: 63.1%
Growth [3]: 42.7%
Growth [4]: 100%
Growth [5]: 100%
Growth [6]: 100%
Growth [7]: 100%
Growth [8]: 69.6%

CCOC1=C[C@@]2(C)C(C[C@@H](O)[C@@]3(C)C4=CC[C@@H](c5ccoc5)[C@]4(C)CCC23)C(C)(C)C1=O (stereo partly drawn)
Growth [1]: 17%
Growth [2]: 84%
Growth [3]: 52%
Growth [4]: 36%
Growth [5]: 67%
Growth [6]: 67%
Growth [7]: 54%
Growth [8]: 57%

CC(=O)O[C@@H]1CC2C(C)(C)/C(=N/O)C=C[C@]2(C)C2CC[C@]3(C)C(=CC[C@H]3c3ccoc3)[C@@]21C (stereo partly drawn)
Growth [1]: 55%
Growth [2]: 56%
Growth [3]: 20%
Growth [4]: 47%
Growth [5]: 87%
Growth [6]: 38%
Growth [7]: 5%
Growth [8]: 44%

COC1=C[C@@]2(C)C(C[C@@H](OC(C)=O)[C@@]3(C)C4=CC[C@@H](c5ccoc5)[C@]4(C)CCC23)C(C)(C)C1=O (stereo partly drawn)
GI50 [10]: 40 µM
Growth [1]: 58%
Growth [2]: 47%
Growth [3]: 50%
GI50 [11]: 40 µM
GI50 [12]: 95 µM
GI50 [13]: 40 µM
GI50 [14]: 35 µM
Growth [4]: 35%
GI50 [15]: 40 µM
Growth [5]: 38%
Growth [6]: 67%
Growth [7]: 63%
GI50 [16]: 20 µM
Growth [8]: 82%
GI50 [17]: 20 µM

CC(C)(C)OC(=O)NCC(=O)O[C@@H]1CC2C(C)(C)C(=O)C=C[C@]2(C)C2CC[C@]3(C)C(=CC[C@H]3c3ccoc3)[C@@]21C (stereo partly drawn)
Growth [9]: 53%
GI50 [10]: 15 µM
Growth [1]: 62%
Growth [2]: 63%
Growth [3]: 33%
GI50 [11]: 20 µM
GI50 [12]: 60 µM
GI50 [13]: 20 µM
GI50 [14]: 65 µM
Growth [4]: 67%
GI50 [15]: 12 µM
Growth [5]: 48%
Growth [6]: 58%
Growth [7]: 53%
GI50 [16]: 20 µM
GI50 [17]: 50 µM

CCO[C@@H]1CC2C(C)(C)C(=O)C=C[C@]2(C)C2CC[C@]3(C)C(=CC[C@H]3c3ccoc3)[C@@]21C (stereo partly drawn)
Growth [1]: 66%
Growth [2]: 76%
Growth [3]: 45%
Growth [4]: 81%
Growth [5]: 100%
Growth [6]: 61%
Growth [7]: 63%
Growth [8]: 69%

CCCC(=O)O[C@@H]1CC2C(C)(C)C(=O)C=C[C@]2(C)C2CC[C@]3(C)C(=CC[C@H]3c3ccoc3)[C@@]21C (stereo partly drawn)
Growth [1]: 57%
Growth [2]: 68%
Growth [3]: 43%
Growth [4]: 49%
Growth [5]: 90%
Growth [6]: 59%
Growth [7]: 15%
Growth [8]: 40%

CC(=O)O[C@@H]1CC2C(C)(C)C(=O)C=C[C@]2(C)C2CC[C@]3(C)C(=CC[C@H]3C3=CC(=O)OC3O)[C@@]21C.CC(=O)O[C@@H]1CC2C(C)(C)C(=O)C=C[C@]2(C)C2CC[C@]3(C)C(=CC[C@H]3C3=CC(O)OC3=O)[C@@]21C (stereo partly drawn)
Growth [1]: -13%
Growth [2]: 24.8%
Growth [3]: 70.3%
Growth [4]: 100%
Growth [5]: 41.6%
Growth [6]: 71.3%
Growth [7]: 44.3%
Growth [8]: 73.3%

CCN(CC)CCO/N=C1\C=C[C@@]2(C)C(C[C@@H](OC(C)=O)[C@@]3(C)C4=CC[C@@H](c5ccoc5)[C@]4(C)CCC23)C1(C)C (stereo partly drawn)
GI50 [10]: 3 µM
Growth [1]: 28%
Growth [2]: 46%
Growth [3]: 7%
GI50 [11]: 4 µM
GI50 [12]: 6 µM
GI50 [13]: 7 µM
GI50 [14]: 3 µM
Growth [4]: 23%
GI50 [15]: 8 µM
Growth [5]: 7%
Growth [6]: 35%
Growth [7]: 5%
GI50 [16]: 4 µM
Growth [8]: 26%
GI50 [17]: 4 µM

CC1(C)C(=O)C=C[C@@]2(C)C1C[C@@H](O)[C@@]1(C)C3=CC[C@@H](c4ccoc4)[C@]3(C)CCC21 (stereo partly drawn)
GI50 [10]: > 100 µM
Growth [1]: 36%
Growth [2]: 46%
Growth [3]: 65%
GI50 [11]: 9 µM
GI50 [12]: 5 µM
GI50 [13]: 9.5 µM
GI50 [14]: > 100 µM
Growth [4]: 100%
GI50 [15]: > 100 µM
Growth [5]: 64%
Growth [6]: 15.8%
Growth [7]: 46%
GI50 [16]: > 100 µM
Growth [8]: 100%
GI50 [17]: 3.5 µM

CC1(C)C(=O)C=C[C@@]2(C)C1C[C@@H](OC(=O)Nc1ccccc1)[C@@]1(C)C3=CC[C@@H](c4ccoc4)[C@]3(C)CCC21 (stereo partly drawn)
Growth [1]: 55%
Growth [2]: 76%
Growth [3]: 100%
Growth [4]: 64%
Growth [5]: 100%
Growth [6]: 74%
Growth [7]: 71%
Growth [8]: 51%

CC1(C)C(=O)C=C[C@@]2(C)C1C[C@@H](OC(=O)/C=C\c1ccccc1)[C@@]1(C)C3=CC[C@@H](c4ccoc4)[C@]3(C)CCC21 (stereo partly drawn)
Growth [1]: 55%
Growth [2]: 81%
Growth [3]: 48%
Growth [4]: 86%
Growth [5]: 86%
Growth [6]: 41%
Growth [7]: 41%
Growth [8]: 69%

CCOC1=C[C@@]2(C)C(C[C@@H](OC(C)=O)[C@@]3(C)C4=CC[C@@H](c5ccoc5)[C@]4(C)CCC23)C(C)(C)C1=O (stereo partly drawn)
GI50 [10]: 30 µM
Growth [1]: 51%
Growth [2]: 35%
Growth [3]: 33%
GI50 [11]: 20 µM
GI50 [12]: 8 µM
GI50 [13]: 50 µM
GI50 [14]: 40 µM
Growth [4]: 65%
GI50 [15]: 40 µM
Growth [5]: 61%
Growth [6]: 40%
Growth [7]: 70%
GI50 [16]: 5 µM
Growth [8]: 52%
GI50 [17]: 5 µM

CCC(=O)O[C@@H]1CC2C(C)(C)C(=O)C=C[C@]2(C)C2CC[C@]3(C)C(=CC[C@H]3c3ccoc3)[C@@]21C (stereo partly drawn)
Growth [1]: 29%
Growth [2]: 67%
Growth [3]: 67%
Growth [4]: 51%
Growth [5]: 61%
Growth [6]: 39%
Growth [7]: 40%
Growth [8]: 48%
